26 molecules from patent US20150291625A1 (PFIZER INC., priority 2012, published 2015) can be followed below.

Assay [1] has as its target T1, D1 (Homo sapiens, UniProt P21728). As to the kind of experiment: Human D1 receptor binding assay ([3H]-SCH23390 competition).
Method: D1 binding assays were performed using over-expressing LTK human cell lines. […] These ligand and tissue concentrations were used in time course studies to determine linearity and equilibrium conditions for binding. Binding was at equilibrium with the specified amount of tissue in 30 minutes at 37° C. […] The pellet was resuspended in assay buffer (50 mM Tris (pH 7.4@ RT) containing 4 mM MgSO4 and 0.5 mM EDTA). […] After a 30 minute incubation period at 37° C., assay samples were rapidly filtered through Unifilter-96 GF/B PEI-coated filter plates and rinsed with 50 mM Tris buffer (pH 7.4 at 4° C.). […] Ki values were calculated according to the Cheng-Prusoff equation.
Assay [2] deals with T1, D1. As to the kind of experiment: D1 cAMP HTRF assay (HEK293T/hD1#1 stable cell line). In kind it is cell-based. Also on record: expressed in transfected cells. The source says: This assay was used to determine the ability of a test compound to agonize (including partially agonize) D1. A Mab anti-cAMP labeled Cryptate visualizes the tracer. […] The signal, therefore, is inversely proportional to the concentration of cAMP in the sample.
The cAMP Dynamic kit was obtained from Cisbio International (Cisbio 62AM4PEJ). Multidrop Combi (Thermo Scientific) was used for assay additions. Envision (PerkinElmer) reader was used to read HTRF.
A HEK293T/hD1#1 stable cell line was constructed internally (Pfizer Ann Arbor). […] One mL aliquots of the cells were made in Cryo-vials and frozen at −80° C. for future use in the D1 HTRF assay.
Frozen cells were quickly thawed, re-suspended in 50 mL warm media and allowed to sit for 5 min prior to centrifugation (1000 rpm) at room temperature. Media was removed and cell pellet was re-suspended in PBS/0.5 μM IBMX generating 2e5 cells/mL. […] Cells and compounds were incubated at room temperature for 30 min. Working solutions of cAMP-D2 and anti-cAMP-cryptate were prepared according to Cisbio instructions. Using Multidrop, 5 μL cAMP-D2 working solution was added to the assay plate containing the test compound and cells. Using Multidrop, 5 μL anti-cAMP-cryptate working solutions was added to assay plate containing test compound, cells and cAMP-D2. Assay plate was incubated for 1 hour at room temperature. Assay plate was read on Envision plate reader using Cisbio recommended settings. A cAMP standard curve was generated using cAMP stock solution provided in the Cisbio kit.
Data analysis was done using computer software. Percent effects were calculated from the compound controls. Ratio EC50 was determined using the raw ratio data from the Envision reader. The cAMP standard curve was used in an analysis program to determine cAMP concentrations from raw ratio data. cAMP EC50 was determined using the calculated cAMP data.
A general note: Time-resolved FRET reads energy transfer from a long-lived donor to a nearby acceptor.

Setting [3] is: Human D1 Receptor Binding, Ki (nM), Geometric mean of 2-4 determinations, a: >=5 determinations, d: single determination.
[4] abbreviates: read-out: Human D1 Receptor Binding, Ki (nM), Geometric mean of 2-4 determinations, a: >=5 determinations, d: single determination.

pEC50: −log10 of the molar value. “And” between values parts separate entries of the source, which are not always exact repeats. Equal entries are not always repeated. Structures can show the parent of a compound that is named as a salt. Where two headings read alike, the source gives them in different places.

T1 sequence (P21728 whole entry): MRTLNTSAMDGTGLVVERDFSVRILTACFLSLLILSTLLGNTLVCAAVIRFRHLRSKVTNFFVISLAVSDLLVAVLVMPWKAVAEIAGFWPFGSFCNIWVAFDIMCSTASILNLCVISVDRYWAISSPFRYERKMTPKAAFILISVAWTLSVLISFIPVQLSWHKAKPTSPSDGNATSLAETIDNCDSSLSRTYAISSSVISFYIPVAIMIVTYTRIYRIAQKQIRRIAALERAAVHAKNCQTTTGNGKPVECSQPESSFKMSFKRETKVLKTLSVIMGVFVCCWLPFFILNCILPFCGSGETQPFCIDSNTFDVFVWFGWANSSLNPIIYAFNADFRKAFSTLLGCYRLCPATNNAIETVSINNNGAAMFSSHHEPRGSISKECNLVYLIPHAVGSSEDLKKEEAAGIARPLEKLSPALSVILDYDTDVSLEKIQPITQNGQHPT

As a reminder, the Ki is the equilibrium dissociation constant of an inhibitor or competing ligand from its target. One may read the pEC50 as the negative decadic logarithm of the EC50, by convention in mol/L. Take `Cc1ncnc(C)c1-c1ccc(Oc2nccc3occc23)cc1F` [Example 69, 4-[4-(4,6-dimethylpyrimidin-5-yl)-3-fluorophenoxy]furo[3,2-c]pyridine]: the affinity at D1 [1] (setting [3]), expressed as Ki, was 77.7 nM. Besides, the pEC50 on D1 [2] is 6.70 and 6.69.

In the case of `Cc1ccc2nccn2c1-c1ccc(Oc2nccc3occc23)cc1` [Example 161, 4-[4-(6-methylimidazo[1,2-a]pyridin-5-yl)phenoxy]furo[3,2-c]pyridine], the Ki at D1 [1] (setting [4]) was 8.49 nM. Also, the pEC50 at D1 [2] is 7.02 and 6.76.

As to `Cc1cnccc1-c1c(C)cc(Oc2nccc3occc23)cc1C` [Example 29, 4-[3,5-Dimethyl-4-(3-methylpyridin-4-yl)phenoxy]furo[3,2-c]pyridine], the Ki at D1 [1] (setting [3]) worked out at 329 nM. This molecule showed a pEC50 on D1 [2] of 5.55.

`CCC(=O)COc1cc(Oc2nccc3occc23)ccc1-c1cccc2nccn12` [Example 41, 1-[5-(furo[3,2-c]pyridin-4-yloxy)-2-(imidazo[1,2-a]pyridin-5-yl)phenoxy]butan-2-one, trifluoroacetate salt]: the Ki on D1 [1] (setting [3]) turned out to be 72.1 nM. The same molecule gave a negative-log EC50 (pEC50) on D1 [2] of 6.29.

As for `COc1cc(Oc2nccc3occc23)ccc1-c1cccc(=O)n1C` [Example 166, 6-[4-(furo[3,2-c]pyridin-4-yloxy)-2-methoxyphenyl]-1-methylpyridin-2(1H)-one], the affinity on D1 [1] (setting [3]) corresponds to a Ki of 22.9 nM. For the same molecule, the pEC50 on D1 [2] is 6.51.

Regarding `CCc1noc(COc2cc(Oc3nccc4occc34)ccc2-c2nccnc2C)n1` [Example 199, 4-{3-[(3-ethyl-1,2,4-oxadiazol-5-yl)methoxy]-4-(3-methylpyrazin-2-yl)phenoxy}furo[3,2-c]pyridine, formate salt], the Ki on D1 [1] (setting [3]) came out at 104 nM. The molecule further gave a pEC50 on D1 [2] of 6.11.

Regarding `Cc1cc(Oc2nccc3occc23)ccc1-c1nc2nccn2cc1C` [Example 111, 7-[4-(furo[3,2-c]pyridin-4-yloxy)-2-methylphenyl]-6-methylimidazo[1,2-a]pyrimidine], affinity on D1 [1] (setting [3]) was put at a Ki of 41.2 nM. The molecule further had a pEC50 on D1 [2] of 6.47.

For the molecule `Cc1nc2cnccc2n1-c1ccc(Oc2nccc3occc23)cc1Cl` [Example 39, 1-[2-chloro-4-(furo[3,2-c]pyridin-4-yloxy)phenyl]-2-methyl-1H-imidazo[4,5-c]pyridine], the Ki on D1 [1] (setting [3]) turned out to be 91 nM. In addition, the pEC50 on D1 [2] was 6.38.

Consider `Cc1cc(Oc2nccc3occc23)ccc1-c1c(C)nc(O)c2nccn12` (single isomer, unassigned) [Example 106, 5-[4-(furo[3,2-c]pyridin-4-yloxy)-2-methylphenyl]-6-methylimidazo[1,2-a]pyrazin-8-ol], for which, at D1 [1] (setting [3]), the Ki was 106 nM. For the same molecule, the pEC50 at D1 [2] is 5.88.

As for `Cc1cc(Oc2nccc3occc23)ccc1-c1cccc2cnn(C)c12` [Example 200, 4-[3-methyl-4-(1-methyl-1H-indazol-7-yl)phenoxy]furo[3,2-c]pyridine], the Ki at D1 [1] (setting [3]) amounted to 111 nM. Besides, at D1 [2], the pEC50 was 5.91.

In turn, `Cc1cc(Oc2nccc3occc23)ccc1-c1cncc2nccn12` [Example 36, 5-[4-(furo[3,2-c]pyridin-4-yloxy)-2-methylphenyl]imidazo[1,2-a]pyrazine] came in with a Ki on D1 [1] (setting [3]) of 120 nM. Further, on D1 [2], the pEC50 is 6.42 and 6.39.

On D1 [1] (setting [3]), `Cc1ncccc1-c1ccc(Oc2nccc3occc23)cc1OCCCN(C)C` [Example 73, 3-[5-(furo[3,2-c]pyridin-4-yloxy)-2-(2-methylpyridin-3-yl)phenoxy]-N,N-dimethylpropan-1-amine, formate salt] had a Ki of 37.7 nM. Moreover, the pEC50 at D1 [2] is 6.13 and 6.02.

The molecule `Cc1cc(Oc2nccc3occc23)ccc1-c1c(C)ncnc1N1CCCC1` [Example 178, 4-{3-methyl-4-[4-methyl-6-(pyrrolidin-1-yl)pyrimidin-5-yl]phenoxy}furo[3,2-c]pyridine, trifluoroacetate salt] had a Ki at D1 [1] (setting [3]) of 46.4 nM. The molecule further showed a negative-log EC50 (pEC50) on D1 [2] of 5.94.

On D1 [1] (setting [3]), `COc1ncnc(C)c1-c1ccc(Oc2nccc3occc23)cc1F` [Example 76, 4-[3-fluoro-4-(4-methoxy-6-methylpyrimidin-5-yl)phenoxy]furo[3,2-c]pyridine] gave a Ki of 139 nM. At D1 [2], the pEC50 is 6.04 and 5.66.

At D1 [1] (setting [3]), `Cn1nccc1-c1ccc(Oc2nccc3occc23)cc1C(F)(F)F` [Example 204, 4-[4-(1-methyl-1H-pyrazol-5-yl)-3-(trifluoromethyl)phenoxy]furo[3,2-c]pyridine] had an inhibitory constant (Ki) of 130 nM. On D1 [2], the pEC50 is 5.93 and 6.20.

Consider `Cc1cc(Oc2nccc3occc23)ccc1-c1c(C)ccc2nccn12` [Example 35, 4-[3-methyl-4-(6-methylimidazo[1,2-a]pyridin-5-yl)phenoxy]furo[3,2-c]pyridine], for which, at D1 [1] (setting [4]), the Ki worked out at 6.86 nM. Further, the pEC50 at D1 [2] was 7.20.

`Cc1cc(Oc2nccc3occc23)ccc1-c1c(C)ncnc1C#N` (single isomer, unassigned) [Example 83, (−)-5-[4-(furo[3,2-c]pyridin-4-yloxy)-2-methylphenyl]-6-methylpyrimidine-4-carbonitrile] came in with a Ki on D1 [1] (setting [3]) of 82.1 nM. On D1 [2], the pEC50 was 6.07 and 6.03.

For the molecule `Cc1nc(N)ccc1-c1ccc(Oc2nccc3occc23)cc1Cl` [Example 90, 5-[2-chloro-4-(furo[3,2-c]pyridin-4-yloxy)phenyl]-6-methylpyridin-2-amine], on D1 [1] (setting [3]), the Ki is 25.4 nM. At D1 [2], this molecule gave a pEC50 of 6.35.

For the molecule `COc1cc(Oc2nccc3occc23)ccc1-c1c(C)cnnc1C` [Example 169, 4-[4-(3,5-dimethylpyridazin-4-yl)-3-methoxyphenoxy]furo[3,2-c]pyridine], the affinity on D1 [1] (setting [3]) corresponds to a Ki of 29.2 nM. Moreover, on D1 [2], the pEC50 is 6.82.

For the molecule `Cc1ncnc(C)c1-c1ccc(Oc2nccc3occc23)c2cn(C)nc12` [Example 144, 4-{[7-(4,6-dimethylpyrimidin-5-yl)-2-methyl-2H-indazol-4-yl]oxy}furo[3,2-c]pyridine], the Ki at D1 [1] (setting [3]) is 246 nM. The same molecule showed a pEC50 on D1 [2] of 5.46.

The molecule `Cc1cc(Oc2nccc3occc23)ccc1-c1ccc(N)nc1C` [Example 56, 5-[4-(furo[3,2-c]pyridin-4-yloxy)-2-methylphenyl]-6-methylpyridin-2-amine] showed a Ki on D1 [1] (setting [3]) of 98.7 nM. Also, the pEC50 at D1 [2] was 6.20 and 6.36.

As for `c1cc(-c2ccc(Oc3nccc4sccc34)cc2)n2ccnc2c1` [Example 214, 4-[4-(imidazo[1,2-a]pyridin-5-yl)phenoxy]thieno[3,2-c]pyridine], the Ki at D1 [1] (setting [3]) amounted to 67.6 nM. The pEC50 at D1 [2] is 6.34.

Turning to `Cc1cc(Oc2nccc3occc23)ccc1-c1ccnnc1C` [Example 145, 4-[3-methyl-4-(3-methylpyridazin-4-yl)phenoxy]furo[3,2-c]pyridine], affinity on D1 [1] (setting [3]) was put at a Ki of 110 nM. This molecule had a pEC50 at D1 [2] of 5.84.

On to `Cc1cc(Oc2nccc3occc23)ccc1-c1c(C)ncnc1N1CC(F)C1` [Example 97, 4-{4-[4-(3-fluoroazetidin-1-yl)-6-methylpyrimidin-5-yl]-3-methylphenoxy}furo[3,2-c]pyridine, formate salt], for which the Ki on D1 [1] (setting [3]) was determined as 7.52 nM. The pEC50 at D1 [2] is 6.69.

Take `Cc1cc(Oc2nccc3occc23)ccc1-c1c(C)cncc1C` [Example 104, 4-[4-(3,5-dimethylpyridin-4-yl)-3-methylphenoxy]furo[3,2-c]pyridine]: the affinity on D1 [1] (setting [3]), expressed as Ki, was 24.1 nM. Further, at D1 [2], the pEC50 is 6.30.

`COc1cc(Oc2nccc3occc23)ccc1-c1c(C)cnnc1C` (single isomer, unassigned) [Example 143, (+)-4-[4-(3,5-dimethylpyridazin-4-yl)-3-methoxyphenoxy]furo[3,2-c]pyridine]: at D1 [1] (setting [3]), the Ki was determined as 64.9 nM. For the same molecule, the pEC50 at D1 [2] was 6.56.
